# Data taken from ChEMBL document CHEMBL1145598, “Discovery and preclinical studies of 5-isopropyl-6-(5-methyl-1,3,4-oxadiazol-2-yl)-N-(2-methyl-1H-pyrrolo[2,3-b]pyridin-5-yl)pyrrolo[2,1-f][1,2,4]triazin-4-amine (BMS-645737), an in vivo active potent VEGFR-2 inhibitor” (Bioorg Med Chem Lett, 2008).
# pIC50: −log10 of the molar value.
# How the values were obtained:
# [1] = AUC in mouse at 50 mg/kg, po after 4 hrs; format: ADME, organism-based; parameters: time < 4 hr, dose 50 mg/kg, route oral; conditions: plasma
# [2] = Total AUC in BALB/c mouse at 5 mg/kg, iv; format: ADME, organism-based; parameters: time AUCmax, dose 5 mg/kg, route intravenous; conditions: in vivo
# [3] = molecular target: Protein kinase C alpha type (Homo sapiens, UniProt P17252); assay: Inhibition of PKCalpha
# NCI-N87 = assay: Antitumor activity against human N87 cells; format: functional, cell-based
# L2987 [4] = assay: Antitumor activity against human L2987 cells xenografted mouse at 15 mg/kg, po after 4 days; format: functional
# [5] = AUC in human L2987 cells xenografted mouse at 15 mg/kg, po after 24 hrs; format: ADME, organism-based; parameters: time < 24 hr, dose 15 mg/kg, route oral; conditions: in vivo
# Rattus norvegicus = assay: AUC in rat at 30 mg/kg; format: ADME, organism-based, Plasma; parameters: dose 30 mg/kg; conditions: in vivo
# [6] = Oral bioavailability in BALB/c mouse at 30 mg/kg; conditions: in vivo
# Mus musculus [7] = assay: Toxicity in human L2987 cells xenografted mouse assessed as weight loss at 7.5 mg/kg, po; format: organism-based; parameters: dose 7.5 mg/kg, route oral; conditions: in vivo
# [8] = Clearance in BALB/c mouse at 5 mg/kg, iv; format: ADME, organism-based; parameters: dose 5 mg/kg, route intravenous; conditions: in vivo
# [9] = Total AUC in BALB/c mouse at 30 mg/kg, po; format: ADME, organism-based; parameters: time AUCmax, dose 30 mg/kg, route oral; conditions: in vivo
# [10] = molecular target: T1, Tyrosine-protein kinase JAK3 (Homo sapiens, UniProt P52333); assay: Inhibition of JAK3
# T1 sequence (P52333 whole entry): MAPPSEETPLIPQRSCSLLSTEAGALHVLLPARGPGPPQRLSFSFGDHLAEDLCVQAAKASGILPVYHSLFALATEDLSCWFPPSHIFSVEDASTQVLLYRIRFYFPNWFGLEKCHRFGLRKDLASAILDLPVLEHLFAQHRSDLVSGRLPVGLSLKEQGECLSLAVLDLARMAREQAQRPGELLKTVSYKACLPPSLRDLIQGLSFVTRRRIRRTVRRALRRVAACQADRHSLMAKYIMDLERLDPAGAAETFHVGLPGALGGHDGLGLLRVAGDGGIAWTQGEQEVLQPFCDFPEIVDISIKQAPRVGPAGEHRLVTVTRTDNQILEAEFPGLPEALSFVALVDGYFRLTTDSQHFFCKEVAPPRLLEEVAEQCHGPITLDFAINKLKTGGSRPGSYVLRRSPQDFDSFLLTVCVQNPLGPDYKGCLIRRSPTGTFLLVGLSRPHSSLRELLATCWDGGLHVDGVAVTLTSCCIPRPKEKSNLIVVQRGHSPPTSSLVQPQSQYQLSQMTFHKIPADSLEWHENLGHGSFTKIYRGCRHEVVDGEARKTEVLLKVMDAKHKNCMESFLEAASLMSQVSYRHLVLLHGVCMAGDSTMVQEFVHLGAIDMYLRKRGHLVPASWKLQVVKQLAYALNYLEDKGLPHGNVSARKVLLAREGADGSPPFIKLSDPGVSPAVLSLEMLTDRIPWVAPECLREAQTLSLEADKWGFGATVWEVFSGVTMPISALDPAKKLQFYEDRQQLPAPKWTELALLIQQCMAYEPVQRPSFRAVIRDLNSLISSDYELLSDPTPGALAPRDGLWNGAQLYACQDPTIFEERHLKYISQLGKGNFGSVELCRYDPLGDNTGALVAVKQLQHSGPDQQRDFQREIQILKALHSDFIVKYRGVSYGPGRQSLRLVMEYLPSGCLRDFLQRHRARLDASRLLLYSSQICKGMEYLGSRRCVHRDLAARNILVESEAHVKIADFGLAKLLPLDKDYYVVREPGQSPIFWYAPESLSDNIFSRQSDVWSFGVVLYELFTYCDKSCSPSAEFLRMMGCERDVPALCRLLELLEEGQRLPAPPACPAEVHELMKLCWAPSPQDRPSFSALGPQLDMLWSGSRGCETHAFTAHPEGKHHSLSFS
# [11] = Mean resident time in BALB/c mouse at 5 mg/kg, iv; format: ADME, organism-based; parameters: dose 5 mg/kg, route intravenous; conditions: in vivo
# [12] = Tmax in BALB/c mouse at 30 mg/kg, po; conditions: in vivo
# L2987 [13] = assay: Antitumor activity against po dosed human L2987 cells xenografted mouse after 24 hrs; format: functional
# [14] = molecular target: Epidermal growth factor receptor (Homo sapiens, UniProt P00533); assay: Inhibition of EGFR
# [15] = molecular target: Vascular endothelial growth factor receptor 2 (Mus musculus, UniProt P35918); assay: Inhibition of mouse Flk1
# [16] = Half life in BALB/c mouse at 30 mg/kg, po; format: ADME, organism-based; parameters: dose 30 mg/kg, route oral; conditions: in vivo
# [17] = molecular target: Vascular endothelial growth factor receptor 1 (Homo sapiens, UniProt P17948); assay: Inhibition of VEGFR1
# [18] = Cmax in human L2987 cells xenografted mouse at 15 mg/kg, po after 24 hrs; format: ADME, organism-based; parameters: dose 15 mg/kg, route oral; conditions: in vivo
# [19] = Volume of distribution at steady state in BALB/c mouse at 5 mg/kg, iv; format: ADME, organism-based; parameters: dose 5 mg/kg, route intravenous; conditions: in vivo, read-out: Vdss
# [20] = molecular target: Platelet-derived growth factor receptor beta (Homo sapiens, UniProt P09619); assay: Inhibition of PDGFRbeta
# Chain of Platelet-derived growth factor receptor beta (P09619 whole entry): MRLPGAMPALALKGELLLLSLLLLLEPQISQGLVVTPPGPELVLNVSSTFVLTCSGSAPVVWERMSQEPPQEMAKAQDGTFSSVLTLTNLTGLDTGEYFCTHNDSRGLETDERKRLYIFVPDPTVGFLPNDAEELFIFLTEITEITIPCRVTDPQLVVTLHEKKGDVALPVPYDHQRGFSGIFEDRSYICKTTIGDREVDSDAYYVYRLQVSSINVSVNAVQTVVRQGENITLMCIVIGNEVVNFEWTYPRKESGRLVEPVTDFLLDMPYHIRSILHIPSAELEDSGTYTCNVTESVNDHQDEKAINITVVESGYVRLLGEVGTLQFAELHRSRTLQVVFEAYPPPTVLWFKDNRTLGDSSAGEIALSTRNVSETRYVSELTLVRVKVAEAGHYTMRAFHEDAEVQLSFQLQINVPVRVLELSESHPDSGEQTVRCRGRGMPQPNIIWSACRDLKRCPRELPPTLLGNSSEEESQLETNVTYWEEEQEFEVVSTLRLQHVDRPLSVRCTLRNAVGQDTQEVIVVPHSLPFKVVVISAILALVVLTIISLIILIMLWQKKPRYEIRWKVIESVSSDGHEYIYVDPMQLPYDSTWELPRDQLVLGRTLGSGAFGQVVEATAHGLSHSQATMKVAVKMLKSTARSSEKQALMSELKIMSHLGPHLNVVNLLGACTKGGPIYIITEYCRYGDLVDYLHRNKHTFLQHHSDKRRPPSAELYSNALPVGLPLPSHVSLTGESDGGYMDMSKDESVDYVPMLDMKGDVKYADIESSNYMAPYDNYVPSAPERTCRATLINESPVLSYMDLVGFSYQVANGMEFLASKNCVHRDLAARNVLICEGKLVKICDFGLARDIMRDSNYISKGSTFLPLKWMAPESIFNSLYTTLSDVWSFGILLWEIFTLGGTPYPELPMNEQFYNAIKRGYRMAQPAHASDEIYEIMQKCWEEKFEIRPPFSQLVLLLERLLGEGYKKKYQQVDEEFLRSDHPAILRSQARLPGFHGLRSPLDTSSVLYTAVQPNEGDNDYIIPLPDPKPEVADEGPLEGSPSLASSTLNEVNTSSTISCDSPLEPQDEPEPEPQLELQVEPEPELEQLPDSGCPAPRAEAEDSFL
# [21] = molecular target: Tyrosine-protein kinase Lck (Homo sapiens, UniProt P06239); assay: Inhibition of LCK
# Mus musculus [22] = assay: Toxicity in human L2987 cells xenografted mouse assessed as weight loss at 15 mg/kg, po; format: organism-based; parameters: dose 15 mg/kg, route oral; conditions: in vivo
# hERG (KCNH2) = hERG (KCNH2) (Homo sapiens, UniProt Q12809); assay: Inhibition of human ERG at 10 uM by patch clamp method
# HUVEC [23] = assay: Antiproliferative activity against bFGF-induced HUVEC; format: functional, cell-based; conditions: Homo sapiens
# [24] = Half life in BALB/c mouse at 5 mg/kg, iv; format: ADME, organism-based; parameters: dose 5 mg/kg, route intravenous; conditions: in vivo
# [25] = Antitumor activity against human GTL16 cells; format: functional, cell-based; conditions: GTL 16
# [26] = Oral bioavailability in rat at 30 mg/kg; format: ADME, organism-based; conditions: in vivo
# [27] = molecular target: Fibroblast growth factor receptor 1 (Homo sapiens, UniProt P11362); assay: Inhibition of FGFR1
# Mus musculus [28] = assay: Toxicity in human L2987 cells xenografted mouse assessed as morbidity at 15 mg/kg, po; format: organism-based; parameters: dose 15 mg/kg, route oral; conditions: in vivo
# [29] = molecular target: Vascular endothelial growth factor receptor 2 (Homo sapiens, UniProt P35968)
# Chain of Vascular endothelial growth factor receptor 2 (Homo sapiens, UniProt P35968) (P35968 whole entry): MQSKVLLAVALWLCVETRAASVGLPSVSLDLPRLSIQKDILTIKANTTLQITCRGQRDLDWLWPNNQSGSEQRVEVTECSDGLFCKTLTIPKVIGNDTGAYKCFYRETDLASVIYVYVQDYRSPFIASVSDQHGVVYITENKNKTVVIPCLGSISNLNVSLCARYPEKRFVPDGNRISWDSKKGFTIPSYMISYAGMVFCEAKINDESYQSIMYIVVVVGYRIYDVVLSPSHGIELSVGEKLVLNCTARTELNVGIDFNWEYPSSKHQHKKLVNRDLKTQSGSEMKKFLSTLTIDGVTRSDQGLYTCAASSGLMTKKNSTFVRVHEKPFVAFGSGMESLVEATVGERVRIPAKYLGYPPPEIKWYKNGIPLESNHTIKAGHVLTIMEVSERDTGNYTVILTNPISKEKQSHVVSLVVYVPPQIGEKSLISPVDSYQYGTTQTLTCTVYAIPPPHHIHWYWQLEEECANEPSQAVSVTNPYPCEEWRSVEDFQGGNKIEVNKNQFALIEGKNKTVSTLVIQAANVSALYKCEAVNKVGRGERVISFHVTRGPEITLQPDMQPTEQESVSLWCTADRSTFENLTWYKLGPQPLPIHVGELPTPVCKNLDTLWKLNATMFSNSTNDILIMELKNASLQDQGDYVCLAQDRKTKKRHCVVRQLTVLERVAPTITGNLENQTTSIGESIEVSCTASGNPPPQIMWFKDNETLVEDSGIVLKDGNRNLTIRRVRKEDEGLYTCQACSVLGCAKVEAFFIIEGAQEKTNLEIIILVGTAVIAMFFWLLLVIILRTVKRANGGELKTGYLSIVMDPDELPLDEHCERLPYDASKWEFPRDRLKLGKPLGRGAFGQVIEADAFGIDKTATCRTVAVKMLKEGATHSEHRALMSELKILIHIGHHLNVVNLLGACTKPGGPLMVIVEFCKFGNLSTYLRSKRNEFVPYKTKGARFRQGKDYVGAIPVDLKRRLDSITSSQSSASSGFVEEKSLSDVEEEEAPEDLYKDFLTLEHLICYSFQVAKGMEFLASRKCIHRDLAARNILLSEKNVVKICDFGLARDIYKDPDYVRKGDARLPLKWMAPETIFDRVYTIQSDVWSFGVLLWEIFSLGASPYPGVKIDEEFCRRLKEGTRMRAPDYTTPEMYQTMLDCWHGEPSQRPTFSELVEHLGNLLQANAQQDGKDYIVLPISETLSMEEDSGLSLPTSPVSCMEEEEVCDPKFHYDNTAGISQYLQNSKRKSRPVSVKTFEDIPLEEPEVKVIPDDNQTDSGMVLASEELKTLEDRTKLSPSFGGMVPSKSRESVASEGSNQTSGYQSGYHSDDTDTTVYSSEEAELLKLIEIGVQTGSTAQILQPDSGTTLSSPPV
# Description: Inhibition of human VEGFR2
# Cytochrome P450 3A4 = Cytochrome P450 3A4 (Homo sapiens, UniProt P08684); assay: Inhibition of CYP3A4; format: ADME
# Chain of Cytochrome P450 3A4 (P08684 whole entry): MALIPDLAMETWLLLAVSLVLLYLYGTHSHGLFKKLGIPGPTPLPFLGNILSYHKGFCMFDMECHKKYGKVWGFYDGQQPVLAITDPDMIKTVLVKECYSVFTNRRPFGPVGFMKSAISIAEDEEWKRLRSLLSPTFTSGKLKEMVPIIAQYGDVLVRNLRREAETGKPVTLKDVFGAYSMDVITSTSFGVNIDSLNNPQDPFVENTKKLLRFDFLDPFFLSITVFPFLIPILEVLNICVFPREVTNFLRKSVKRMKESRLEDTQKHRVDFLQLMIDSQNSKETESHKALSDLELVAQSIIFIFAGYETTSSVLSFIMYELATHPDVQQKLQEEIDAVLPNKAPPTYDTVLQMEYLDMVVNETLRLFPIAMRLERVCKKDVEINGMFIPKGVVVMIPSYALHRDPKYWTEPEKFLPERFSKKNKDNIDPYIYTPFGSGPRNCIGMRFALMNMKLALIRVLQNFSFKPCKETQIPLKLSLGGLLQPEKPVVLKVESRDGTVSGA
# L2987 [30] = assay: Antitumor activity against human L2987 cells xenografted mouse at 7.5 mg/kg, po after 4 days; format: functional
# [31] = AUC in human L2987 cells xenografted mouse at 7.5 mg/kg, po after 24 hrs; format: ADME, organism-based; parameters: time < 24 hr, dose 7.5 mg/kg, route oral; conditions: in vivo
# L2987 [32] = assay: Antitumor activity against human L2987 cells xenografted in mouse; format: functional, cell-based
# [33] = Antitumor activity against human H1993 cells; format: functional, cell-based; conditions: NCI-H1993
# HUVEC [34] = assay: Antiproliferative activity against VEGF-induced HUVEC; format: functional, cell-based; conditions: Homo sapiens
# Mus musculus [35] = assay: Toxicity in human L2987 cells xenografted mouse assessed as morbidity at 7.5 mg/kg, po; format: organism-based; parameters: dose 7.5 mg/kg, route oral; conditions: in vivo
# [36] = Cmax in human L2987 cells xenografted mouse at 7.5 mg/kg, po after 24 hrs; format: ADME, organism-based; parameters: dose 7.5 mg/kg, route oral; conditions: in vivo
# [37] = Aqueous solubility at pH 2; format: physicochemical; conditions: buffer
# [38] = Aqueous solubility at pH 6.5; format: physicochemical; conditions: buffer
# [39] = molecular target: Receptor tyrosine-protein kinase erbB-2 (Homo sapiens, UniProt P04626); assay: Inhibition of HER2
# Chain of Receptor tyrosine-protein kinase erbB-2 (P04626 whole entry): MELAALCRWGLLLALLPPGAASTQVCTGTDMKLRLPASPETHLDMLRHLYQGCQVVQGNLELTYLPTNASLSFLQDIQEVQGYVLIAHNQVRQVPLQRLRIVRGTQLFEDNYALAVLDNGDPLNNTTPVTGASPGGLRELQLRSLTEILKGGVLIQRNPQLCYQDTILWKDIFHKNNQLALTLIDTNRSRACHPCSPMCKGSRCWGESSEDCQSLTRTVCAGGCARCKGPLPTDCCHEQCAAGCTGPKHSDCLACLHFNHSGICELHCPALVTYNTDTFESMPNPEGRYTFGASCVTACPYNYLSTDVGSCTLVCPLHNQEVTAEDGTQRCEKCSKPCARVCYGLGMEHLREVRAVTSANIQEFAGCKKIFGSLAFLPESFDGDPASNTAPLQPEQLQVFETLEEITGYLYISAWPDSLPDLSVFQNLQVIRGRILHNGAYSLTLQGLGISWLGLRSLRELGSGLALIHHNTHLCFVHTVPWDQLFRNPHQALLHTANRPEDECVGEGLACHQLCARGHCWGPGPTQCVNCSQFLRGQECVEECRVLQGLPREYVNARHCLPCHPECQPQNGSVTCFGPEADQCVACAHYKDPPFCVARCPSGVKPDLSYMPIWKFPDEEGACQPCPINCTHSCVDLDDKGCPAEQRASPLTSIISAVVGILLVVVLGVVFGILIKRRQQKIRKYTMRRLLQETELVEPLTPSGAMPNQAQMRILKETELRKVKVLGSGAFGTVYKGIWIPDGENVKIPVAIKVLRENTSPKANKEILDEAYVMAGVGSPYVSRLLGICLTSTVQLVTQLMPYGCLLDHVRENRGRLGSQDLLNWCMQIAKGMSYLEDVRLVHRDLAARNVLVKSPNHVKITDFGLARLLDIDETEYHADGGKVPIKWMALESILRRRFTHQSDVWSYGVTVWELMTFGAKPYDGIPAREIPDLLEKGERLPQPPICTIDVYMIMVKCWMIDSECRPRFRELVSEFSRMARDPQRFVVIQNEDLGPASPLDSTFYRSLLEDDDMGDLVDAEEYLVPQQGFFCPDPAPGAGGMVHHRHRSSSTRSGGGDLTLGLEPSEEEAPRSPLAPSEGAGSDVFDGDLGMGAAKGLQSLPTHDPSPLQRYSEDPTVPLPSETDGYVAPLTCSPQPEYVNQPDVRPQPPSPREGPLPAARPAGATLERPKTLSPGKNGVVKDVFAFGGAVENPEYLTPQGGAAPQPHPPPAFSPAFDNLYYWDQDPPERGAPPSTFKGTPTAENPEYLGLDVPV
# [40] = molecular target: Voltage-gated inwardly rectifying potassium channel KCNH2 (Homo sapiens, UniProt Q12809); assay: Inhibition of human ERG by patch clamp method
structure (smiles),measurement,setting,value
Cc1cc2c(F)c(Oc3ncnn4cc(OC[C@@H](C)O)c(C)c34)ccc2[nH]1 [BRIVANIB],AUC at 4 h,[1],136 µM·h
Cc1cc2cc(Nc3ncnn4cc(-c5nnc(C)o5)c(C(C)C)c34)cnc2[nH]1,AUC,[2],25 µM·h
same,pIC50,[3],< 4.30
same,pIC50,NCI-N87,< 5.00
same,Activity,L2987 [4],>=50%
same,AUC at 24 h,[5],30 µM·h
same,AUC,Rattus norvegicus,287 µM·h
same,bioavailability,[6],> 100%
same,Activity,Mus musculus [7],Non-toxic
same,clearance,[8],0.51 L/h/kg
same,AUC,[9],182 µM·h
same,pIC50,[10],< 4.30
same,MRT,[11],2.7 h
same,Tmax,[12],0.5 h
same,Activity,L2987 [13],Dose-dependent effect
same,minimal effective dose,L2987 [13]; read-out: MED,7.5 mg/kg
same,pIC50,[14],< 6.00
same,pIC50,[15],7.28
same,half-life,[16],2.5 h
same,pIC50,[17],6.57
same,Cmax,[18],2.64 µM
same,Vd,[19],1.4 L/kg
same,pIC50,[20],< 5.70
same,pIC50,[21],< 5.70
same,Activity,Mus musculus [22],Non-toxic
same,inhibition at 10 µM,hERG (KCNH2),64%
same,pIC50,HUVEC [23],6.86
same,half-life,[24],2.9 h
same,pIC50,[25],< 5.00
same,bioavailability,[26],68%
same,pIC50,[27],7.11
same,Activity,Mus musculus [28],Non-toxic
same,pIC50,[29],7.60
same,pIC50,Cytochrome P450 3A4,4.94
same,Activity,L2987 [30],>=50%
same,AUC at 24 h,[31],11 µM·h
same,pIC50,L2987 [32],< 5.60
same,pIC50,[33],< 5.00
same,pIC50,HUVEC [34],7.89
same,Activity,Mus musculus [35],Non-toxic
same,Cmax,[36],1.03 µM
same,solubility,[37],0.4 mg/mL
same,solubility,[38],0.0028 mg/mL
same,pIC50,[39],< 5.30
same,pIC50,[40],5.18
Cc1c(OC[C@@H](C)O)cn2ncnc(Oc3cnc4[nH]ccc4c3F)c12,AUC at 4 h,[1],11.1 µM·h
Cc1cc2c(F)c(Oc3ncnn4cc(OC[C@@H](C)O)c(C)c34)cnc2[nH]1,AUC at 4 h,[1],29.6 µM·h
Cc1nnc(-c2cn3ncnc(Nc4cnc5[nH]ccc5c4)c3c2C(C)C)o1,AUC,[2],12.4 µM·h
same,pIC50,[3],< 4.30
same,bioavailability,[6],29%
same,clearance,[8],1.08 L/h/kg
same,AUC,[9],21.7 µM·h
same,pIC50,[10],< 4.30
same,MRT,[11],1.7 h
same,pIC50,[14],6.82
same,half-life,[16],4.5 h
same,Vd,[19],1.9 L/kg
same,pIC50,[20],6.41
same,pIC50,[21],6.73
same,inhibition at 10 µM,hERG (KCNH2),29%
same,half-life,[24],1.2 h
same,pIC50,[27],7.21
same,pIC50,[29],7.51
same,pIC50,Cytochrome P450 3A4,< 4.40
same,pIC50,[39],6.30
CNc1nnc(-c2cn3ncnc(Nc4cnc5[nH]c(C)cc5c4)c3c2C(C)C)o1,AUC,[2],46 µM·h
same,bioavailability,[6],99%
same,clearance,[8],0.27 L/h/kg
same,AUC,[9],272 µM·h
same,MRT,[11],4.3 h
same,half-life,[16],2.8 h
same,Vd,[19],1.2 L/kg
same,half-life,[24],2.8 h
same,pIC50,Cytochrome P450 3A4,5.19
